Test systems include A549 NSCLC; CAKI-1 renal; HL-60(TB) leukemia; M14 melanoma; MALME-3M melanoma; NCI-H226 lung; NCI-H23 lung; NCI-H522 lung; SF-295 CNS; SK-MEL-5 melanoma; U251 CNS; HCT-15 colon; RXF 393 renal; SK-MEL-2 melanoma.
Common to all, as to test: NCI-60 cell line screen, 48 h

TGI and GI50 data for nine compounds are collected here from PubChem BioAssay (NCI).

Each structure is given as a SMILES string.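 Briefly, cells in 96-well plates were exposed to five compound concentrations for 48 h, and endpoints were estimated by linear interpolation. GI50: concentration for 50% inhibition of growth. At the TGI there is no net growth.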

For the compound `Cc1ccc2c(ccc(/C=C\c3cc(C)c4cccnc4c3O)[n+]2C)c1`, the TGI with A549 NSCLC worked out at 40.9 µM; in the experiment with CAKI-1 renal, 25.5 µM; in the experiment with HL-60(TB) leukemia it was 19.7 µM; in the experiment on M14 melanoma, 25.5 µM; in the experiment on MALME-3M melanoma it was 25.1 µM; in the experiment on NCI-H226 lung it was 3.98 µM. Also, the TGI in the experiment on NCI-H23 lung amounted to 53.4 µM; in the experiment on NCI-H522 lung, 27.8 µM; in the experiment with SF-295 CNS it was 26.9 µM; in the experiment on SK-MEL-5 melanoma it was 2.98 µM; in the experiment with U251 CNS, 68.7 µM.
As to `OCc1cc2ccncc2c2c1[nH]c1ccccc12`, the TGI was 24.8 µM in the experiment with A549 NSCLC; 17.9 µM with CAKI-1 renal; 91.5 µM in the experiment on HCT-15 colon; 24.9 µM in the experiment on HL-60(TB) leukemia; 43.8 µM in the experiment on M14 melanoma; 24.6 µM in the experiment on MALME-3M melanoma. Moreover, the TGI in the experiment with NCI-H226 lung stood at 6.71 µM; with NCI-H23 lung, 48.2 µM; with RXF 393 renal, 9.77 µM; with SF-295 CNS, 25.1 µM; with SK-MEL-2 melanoma it was 67.5 µM; in the experiment with SK-MEL-5 melanoma, 25.1 µM. Also, the TGI in the experiment on U251 CNS worked out at 18.9 µM.
For `CC1(C)N=C(N)N=C(N)N1c1cccc(C(=O)Nc2ccc(S(=O)(=O)F)cc2)c1`, the TGI in the experiment on A549 NSCLC, in the experiment with CAKI-1 renal, in the experiment on HCT-15 colon, in the experiment with HL-60(TB) leukemia, with M14 melanoma and with MALME-3M melanoma was over 100 µM throughout. Moreover, the TGI in the experiment on NCI-H226 lung, with NCI-H23 lung, with NCI-H522 lung, with RXF 393 renal, with SF-295 CNS and in the experiment on SK-MEL-2 melanoma was over 100 µM in each case. For the same compound, the TGI with SK-MEL-5 melanoma and with U251 CNS was over 100 µM throughout.
Consider `CCN(CC)c1ccc2nc3ccc(N=Nc4c(O)ccc5ccccc45)cc3[n+](-c3ccccc3)c2c1`, for which the TGI with A549 NSCLC, in the experiment on CAKI-1 renal, in the experiment on HCT-15 colon, in the experiment on HL-60(TB) leukemia, in the experiment with M14 melanoma and in the experiment on MALME-3M melanoma was over 100 µM each time. Moreover, the TGI in the experiment with NCI-H226 lung, with NCI-H23 lung, in the experiment on NCI-H522 lung, in the experiment with RXF 393 renal, with SF-295 CNS and in the experiment with SK-MEL-2 melanoma was over 100 µM in each case. Further, the TGI in the experiment on SK-MEL-5 melanoma and in the experiment with U251 CNS was over 100 µM in each case.
For the compound `C[N+](C)(C)c1cc2c(nn1)Nc1ccccc1S2`, the TGI in the experiment on A549 NSCLC is over 100 µM; in the experiment on CAKI-1 renal, over 100 µM; in the experiment on HCT-15 colon, over 100 µM; with HL-60(TB) leukemia, 74 µM; in the experiment on M14 melanoma it was 40 µM; with MALME-3M melanoma it was 70 µM. Besides, the TGI was 35.9 µM in the experiment with NCI-H226 lung; over 100 µM in the experiment with NCI-H23 lung; 52.8 µM in the experiment on NCI-H522 lung; over 100 µM in the experiment on RXF 393 renal; 49.7 µM in the experiment on SF-295 CNS; 37.1 µM in the experiment on SK-MEL-2 melanoma. For the same compound, the TGI came to 29.9 µM in the experiment on SK-MEL-5 melanoma and 63.9 µM in the experiment with U251 CNS.
On to `CN=C(N)c1ccc(N=C(N)c2ccc(C(N)=Nc3ccc(C(N)=NC)cc3)cc2)cc1`, for which the TGI in the experiment with A549 NSCLC, with CAKI-1 renal, with HCT-15 colon, with HL-60(TB) leukemia, in the experiment with M14 melanoma and with MALME-3M melanoma was over 100 µM each time. Also, the TGI in the experiment on NCI-H226 lung, in the experiment with NCI-H522 lung, with RXF 393 renal, in the experiment with SF-295 CNS, in the experiment with SK-MEL-2 melanoma and in the experiment with SK-MEL-5 melanoma was over 100 µM throughout. The TGI in the experiment with U251 CNS is over 100 µM.
Turning to `Clc1ccc(C[P+]2(c3ccccc3)CCCCC2)cc1`, the TGI with A549 NSCLC was over 100 µM; in the experiment on HCT-15 colon it was over 100 µM; with HL-60(TB) leukemia, 93.9 µM; in the experiment on M14 melanoma, over 100 µM; in the experiment with MALME-3M melanoma, over 100 µM; with NCI-H226 lung, over 100 µM. Moreover, the TGI with NCI-H23 lung was over 100 µM; with NCI-H522 lung it was over 100 µM; in the experiment on RXF 393 renal it was over 100 µM; in the experiment on SF-295 CNS, over 100 µM; in the experiment with SK-MEL-2 melanoma, over 100 µM; with SK-MEL-5 melanoma, 43.3 µM. In addition, the TGI in the experiment with U251 CNS is over 100 µM.
Consider `C[C@]12CC[C@@H]3c4ccc(O)cc4CC[C@H]3[C@@H]1CC[C@@H]2OC(=O)CCc1ccccc1`, for which the TGI came out at 52.9 µM in the experiment with A549 NSCLC; 37.7 µM in the experiment with CAKI-1 renal; 33 µM in the experiment on HCT-15 colon; 43.9 µM with HL-60(TB) leukemia; 37.8 µM in the experiment on M14 melanoma; 34.8 µM in the experiment with MALME-3M melanoma. For the same compound, the TGI in the experiment on NCI-H226 lung is 36.8 µM; in the experiment on NCI-H23 lung, 34.6 µM; with NCI-H522 lung it was 32.9 µM; in the experiment on RXF 393 renal it was 33.6 µM; with SF-295 CNS, 42 µM; in the experiment on SK-MEL-2 melanoma it was 30.8 µM. Moreover, the figures for the TGI with SK-MEL-5 melanoma and with U251 CNS were 33.7 µM and 38.1 µM, respectively.
With `N#C/C(=C\c1ccc(Br)cc1)n1nnc2cc(Cl)c(Cl)cc21`, the GI50 was 3.1 µM in the experiment on A549 NSCLC; 1.67 µM in the experiment with HCT-15 colon; 1.92 µM in the experiment with M14 melanoma; 3.59 µM in the experiment with NCI-H226 lung; 2.89 µM in the experiment on NCI-H23 lung; 2.08 µM in the experiment on SK-MEL-2 melanoma. For the same compound, the TGI is over 100 µM in the experiment with A549 NSCLC; 5.17 µM with HCT-15 colon; 5.03 µM with M14 melanoma; over 100 µM with NCI-H226 lung; over 100 µM in the experiment on NCI-H23 lung; 4.86 µM in the experiment with SK-MEL-2 melanoma.
